The values below come from patent US20090069320A1, “Substituted 4-Amino-Quinazoline Compounds with Metabotropic Glutamate Receptor Regulating Activity and Uses Thereof” (Gruenenthal GmbH, priority 2006, published 2009).

Structures can show the parent of a compound that is named as a salt.

In experiment [1] the target is T1, mGluR5 receptor (Sus scrofa, UniProt I3LUI7).
T1 construct: 450 μg of protein from brain homogenate with 5 nM ^3[H]-MPEP; from tissue; host or cells: pig brain halves without medulla, cerebellum and pons
In words: [3H]-MPEP mGluR5 receptor binding assay (pig brain homogenate). The note with it: 5 nM [3H]-MPEP; for inhibition at 10 µM: read-out: % Inhibition of mGluR5 Receptor (pig) [^3H]-MPEP Bond at 10 μM; for IC50: read-out: IC50 mGluR5 Receptor (pig) [^3H]-MPEP Bond. Put shortly: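 Radioligand displacement of 5 nM [3H]-MPEP from pig brain homogenate (450 μg protein; medulla, cerebellum and pons removed) in 20 mM Hepes pH 8.0. Compounds were tested at 10 μM, incubated 60 min at room temperature, then filtered and counted by scintillation. Non-specific binding was defined with 10 μM MPEP.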

Experiment [2] addresses T2, mGluR5 receptor (human) (Homo sapiens, UniProt P41594).
T2 construct: host or cells: CHO
In words: Functional Ca2+ influx assay in CHO-hmGluR5 cells (DHPG 10 μM, FLIPR). In kind it is cell-based. The procedure:
V. Functional Ca^2+ Influx Assay
20,000 CHO-hmGluR5 cells/well (Euroscreen, Gosselies, Belgium) are pipetted into 96-well plates (BD Biosciences, Heidelberg, Germany, Ref. 356640, clear bottom, 96-well, poly-D-lysine) and incubated overnight in HBSS buffer (Gibco 14025-050) with the following additions: 10% FCS (GIBCO, 10270-106) and doxycycline (BD Biosciences Clontech 631311 600 ng/ml).
For the functional study the cells were charged with 2 μM of Fluo-4 and 0.01% by vol. pluronic F127 (Molecular Probes Europe BV, Leiden, The Netherlands) in HBSS buffer (Hank's buffered saline solution, Gibco Invitrogen GmbH, Karlsruhe, Germany) with probenicide (Sigma P8761, […]) for 30 min. at 37° C.
The cells are then washed 3 times with washing buffer (HBSS buffer, Gibco No. 14025-050), with probenicide (Sigma P8761, 0.69 mg/ml) and then taken up with the same buffer ad 100 μl. After 15 min. the plates for determining the Ca^2+ measurements in the presence of DHPG ((S)-3,5-dihydroxyphenylglycine, Tocris Biotrend Chemikalien GmbH, Cologne, Germany, final DHPG concentration: 10 μM) and also in the presence or absence of test substances are transferred into a fluorometric imaging plate reader (FLIPR, Molecular Devices, Sunnyvale, Calif.).
The Ca^2+-dependent fluorescence is measured before and after the addition of test substances. The quantification occurs through the measurement of the highest fluorescence intensity over time. After the fluorescence base line has been recorded for 10 sec. 50 μl of test substance solution (different test substance concentrations in HBSS buffer with 1% DMSO and 0.02% Tween 20, Sigma) are added and the fluorescence signal is measured for 6 min. 50 μl of DHPG solution ((S)-3,5-dihydroxyphenylglycine, Tocris Biotrend Chemikalien GmbH, Cologne, Germany, final DHPG concentration: 10 μM) are then added and the influx of Ca^2+ is measured simultaneously for 60 sec. The final DMSO concentration amounts to 0.25% and the final Tween 20 content amounts to 0.005%. The data are analysed with Microsoft Excel and GraphPad Prism. The dose effect curves are calculated with non-linear regression and IC50 values determined. Each data point is determined 3 times and IC50 values are averaged from a minimum of 2 independent measurements. Ki values are calculated according to the following formula:
Ki=IC50/(1+(AGconc./EC50)).
AGconc.=10 μM; EC50 corresponds to the DHPG concentration necessary for the half-maximum influx of Ca^2+.

T2 sequence (P41594 21-1212): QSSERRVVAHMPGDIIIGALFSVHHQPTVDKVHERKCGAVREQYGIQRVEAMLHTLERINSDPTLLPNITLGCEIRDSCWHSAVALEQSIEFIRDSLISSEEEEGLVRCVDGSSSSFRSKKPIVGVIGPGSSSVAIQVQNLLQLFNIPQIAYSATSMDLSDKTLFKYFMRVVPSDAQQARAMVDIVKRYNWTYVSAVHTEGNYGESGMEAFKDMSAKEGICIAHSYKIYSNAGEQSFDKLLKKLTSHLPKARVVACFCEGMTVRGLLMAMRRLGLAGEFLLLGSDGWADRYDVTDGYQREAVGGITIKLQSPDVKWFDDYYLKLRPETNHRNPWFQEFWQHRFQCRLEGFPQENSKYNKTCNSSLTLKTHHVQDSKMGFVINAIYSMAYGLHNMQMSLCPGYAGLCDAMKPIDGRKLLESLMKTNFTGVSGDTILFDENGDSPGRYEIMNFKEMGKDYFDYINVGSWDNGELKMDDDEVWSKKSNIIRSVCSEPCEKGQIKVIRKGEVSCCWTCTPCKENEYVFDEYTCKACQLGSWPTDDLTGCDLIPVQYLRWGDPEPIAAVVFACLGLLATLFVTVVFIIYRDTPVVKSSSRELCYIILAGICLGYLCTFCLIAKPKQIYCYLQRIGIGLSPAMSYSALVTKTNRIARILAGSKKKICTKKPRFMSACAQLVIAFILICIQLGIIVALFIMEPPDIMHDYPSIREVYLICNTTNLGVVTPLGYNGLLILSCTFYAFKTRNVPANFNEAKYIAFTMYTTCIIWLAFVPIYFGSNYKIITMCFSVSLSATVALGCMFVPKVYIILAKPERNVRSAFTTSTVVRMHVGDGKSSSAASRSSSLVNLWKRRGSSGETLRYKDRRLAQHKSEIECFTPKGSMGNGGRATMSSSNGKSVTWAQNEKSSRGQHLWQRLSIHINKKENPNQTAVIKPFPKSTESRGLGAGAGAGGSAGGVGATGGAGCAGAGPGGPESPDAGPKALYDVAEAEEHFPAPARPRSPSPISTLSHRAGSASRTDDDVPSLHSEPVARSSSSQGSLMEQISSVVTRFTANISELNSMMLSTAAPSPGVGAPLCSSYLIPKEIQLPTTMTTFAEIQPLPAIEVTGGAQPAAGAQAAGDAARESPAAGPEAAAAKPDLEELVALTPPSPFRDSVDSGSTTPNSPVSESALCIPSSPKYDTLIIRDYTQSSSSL
T1 sequence (I3LUI7 19-1212): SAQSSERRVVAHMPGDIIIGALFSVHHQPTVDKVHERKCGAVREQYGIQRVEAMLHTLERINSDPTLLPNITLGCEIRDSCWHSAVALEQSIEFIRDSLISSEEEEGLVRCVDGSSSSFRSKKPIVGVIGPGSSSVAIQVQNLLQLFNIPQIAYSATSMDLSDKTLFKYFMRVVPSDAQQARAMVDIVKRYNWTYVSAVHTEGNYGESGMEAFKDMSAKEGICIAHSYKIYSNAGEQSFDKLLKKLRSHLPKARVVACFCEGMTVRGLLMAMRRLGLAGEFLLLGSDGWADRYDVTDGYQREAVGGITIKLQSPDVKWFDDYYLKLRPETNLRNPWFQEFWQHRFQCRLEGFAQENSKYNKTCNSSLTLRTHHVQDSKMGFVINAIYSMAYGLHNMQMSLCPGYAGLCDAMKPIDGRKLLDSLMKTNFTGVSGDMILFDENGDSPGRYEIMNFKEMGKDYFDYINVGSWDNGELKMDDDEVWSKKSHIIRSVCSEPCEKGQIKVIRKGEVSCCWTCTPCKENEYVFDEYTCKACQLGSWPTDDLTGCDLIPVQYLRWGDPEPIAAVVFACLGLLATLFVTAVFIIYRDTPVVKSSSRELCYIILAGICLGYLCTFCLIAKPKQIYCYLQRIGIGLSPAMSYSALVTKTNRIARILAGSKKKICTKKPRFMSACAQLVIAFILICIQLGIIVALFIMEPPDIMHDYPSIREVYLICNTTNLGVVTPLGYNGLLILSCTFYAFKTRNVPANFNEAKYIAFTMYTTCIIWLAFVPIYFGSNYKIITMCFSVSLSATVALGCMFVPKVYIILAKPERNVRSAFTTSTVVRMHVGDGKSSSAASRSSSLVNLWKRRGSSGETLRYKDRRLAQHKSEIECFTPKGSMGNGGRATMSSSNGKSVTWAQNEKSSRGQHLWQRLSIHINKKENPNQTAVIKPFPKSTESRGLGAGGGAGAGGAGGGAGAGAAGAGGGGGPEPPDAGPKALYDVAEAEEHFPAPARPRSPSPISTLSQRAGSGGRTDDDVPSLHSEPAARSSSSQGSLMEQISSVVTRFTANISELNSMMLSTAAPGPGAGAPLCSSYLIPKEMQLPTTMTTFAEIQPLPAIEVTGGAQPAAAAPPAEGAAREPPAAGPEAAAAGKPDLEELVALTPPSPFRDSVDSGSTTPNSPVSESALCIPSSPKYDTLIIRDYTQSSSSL

The inhibition is the relative decrease from the control value, in per cent. One may read the Ki as a measure of affinity in units of concentration, obtained from inhibition or displacement. A higher Ki goes with weaker binding. Consider `CC(=O)N(Cc1cccc(-c2ccc3ncnc(NC4CC4)c3c2)c1)C(C)(C)C` [Example 202, N-tert-butyl-N-[3-(4-cyclopropylamino-quinazolin-6-yl)-benzyl]-acetamide], for which the inhibition at 10 µM in experiment [1] (10 μM compound) is 55%. The Ki in experiment [2] came to 3.3 nM. Usually IC50 stands for the concentration that gives 50% inhibition. Regarding `O=C(N(Cc1cccc(-c2ccc3ncnc(NC4CC4)c3c2)c1)C1CC1)C(F)(F)F` [Example 273, N-cyclopropyl-N-(3-(4-(cyclopropylamino)quinazolin-6-yl)benzyl)-2,2,2-trifluoroacetamide], the IC50 in experiment [1] amounted to 30 nM. In addition, in experiment [2], the Ki is 1.7 nM. Turning to `COc1ccc(CN(C(C)=O)C2CC2)cc1-c1ccc2ncnc(NC3CC3)c2c1` [Example 261, N-cyclopropyl-N-[3-(4-cyclopropylamino-quinazolin-6-yl)-4-methoxy-benzyl]-acetamide], in experiment [1], the half-inhibitory concentration (IC50) is 200 nM. The affinity in experiment [2] corresponds to a Ki of 39 nM. Take `O=C(c1ccccc1)N(Cc1cc(-c2ccc3ncnc(NC4CC4)c3c2)ccc1F)C1CC1` [Example 269, N-cyclopropyl-N-(5-(4-(cyclopropylamino)quinazolin-6-yl)-2-fluorobenzyl)benzamide]: the IC50 in experiment [1] turned out to be 280 nM. In experiment [2], this molecule had a Ki of 8 nM. The matching figures for `O=C1CCC(=O)N1Cc1cccc(-c2cc3c(NC4CC4)ncnc3cc2F)c1` [Example 882, 1-(3-(4-(cyclopropylamino)-7-fluoroquinazolin-6-yl)benzyl)pyrrolidine-2,5-dione]: 70 nM and 2.7 nM. The matching figures for `CC(=O)N(Cc1cc(-c2ccc3ncnc(NC4CC4)c3c2)cs1)C1CC1` [Example 262, N-cyclopropyl-N-[4-(4-cyclopropylamino-quinazolin-6-yl)-thiophen-2-ylmethyl]-acetamide]: 110 nM and 5.9 nM.

With `O=C(c1ccccc1)N(Cc1cccc(-c2ccc3ncnc(N4CCCC4)c3c2)c1)C1CC1` [Example 121, N-cyclopropyl-N-[3-(4-pyrrolidin-1-yl-quinazolin-6-yl)-benzyl]-benzamide], the Ki in experiment [2] worked out at 7.5 nM. For `CS(=O)(=O)N(Cc1cccc(-c2ccc3ncnc(NC4CC4)c3c2)c1)C1CC1` [Example 270, N-cyclopropyl-N-(3-(4-(cyclopropylamino)quinazolin-6-yl)benzyl)methane sulfonamide], the IC50 in experiment [1] was 280 nM. In experiment [2], this molecule displayed a Ki of 12 nM. The matching figures for `CCOC(=O)N(Cc1cccc(-c2ccc3ncnc(NC4CC4)c3c2)c1)C1CC1` [Example 875, ethyl cyclopropyl(3-(4-(cyclopropylamino)quinazolin-6-yl)benzyl)carbamate]: 40 nM and 51.1 nM. The matching figures for `O=C1CCC(=O)N1Cc1cccc(-c2ccc3ncnc(NC4CC4)c3c2)c1` [Example 258, 1-[3-(4-cyclopropylamino-quinazolin-6-yl)-benzyl]-pyrrolidine-2,5-dione]: 50 nM and 3.9 nM. For `CC(=O)N(Cc1cccc(-c2ccc3ncnc(NC4CC4)c3c2)c1)C1CC1` [Example 271, N-cyclopropyl-N-(3-(4-(cyclopropylamino)quinazolin-6-yl)benzyl)acetamide], in experiment [1], the IC50 turned out to be 140 nM. In experiment [2], this molecule displayed a Ki of 8.2 nM. Turning to `CC1CC(=O)N(Cc2cccc(-c3ccc4ncnc(NC5CC5)c4c3)c2)C1=O` (stereo not shown) [Example 245, 1-[3-(4-cyclopropylamino-quinazolin-6-yl)-benzyl]-3-methyl-pyrrolidine-2,5-dione], the IC50 in experiment [1] worked out at 140 nM. Besides, the affinity in experiment [2] corresponds to a Ki of 5.2 nM. Consider `N#CCC(=O)N(Cc1cccc(-c2ccc3ncnc(NC4CC4)c3c2)c1)C1CC1` [Example 211, 2-cyano-N-cyclopropyl-N-[3-(4-cyclopropylamino-quinazolin-6-yl)-benzyl]-acetamide], for which, in experiment [1], the IC50 amounted to 70 nM. The same molecule gave a Ki in experiment [2] of 8.4 nM. The matching figures for `COc1ccc(CN(C2CC2)S(C)(=O)=O)cc1-c1ccc2ncnc(NC3CC3)c2c1` [Example 250, N-cyclopropyl-N-(3-(4-(cyclopropylamino)quinazolin-6-yl)-4-methoxybenzyl)methane sulfonamide]: 120 nM and 5 nM. As for `CC(C)(C)Nc1ncnc2ccc(-c3cccc(CN4C(=O)CCC4=O)c3)cc12` [Example 196, 1-[3-(4-tert-butylamino-quinazolin-6-yl)-benzyl]-pyrrolidine-2,5-dione hydrochloride], the IC50 in experiment [1] stood at 90 nM. The molecule further had a Ki in experiment [2] of 4.7 nM.

For the molecule `Cc1cc(C(=O)N(Cc2cc(-c3ccc4nc(C)nc(NC5CC5)c4c3)ccc2F)C2CC2)n(C)n1` [Example 542, N-cyclopropyl-N-(5-(4-(cyclopropylamino)-2-methylquinazolin-6-yl)-2-fluorobenzyl)-1,3-dimethyl-1H-pyrazole-5-carboxamide], in experiment [1] (10 μM compound), the inhibition at 10 µM turned out to be 33%.

Regarding `Cc1nc(NC2CC2)c2cc(-c3ccc(F)c(CN(C(=O)c4ccccc4C(F)(F)F)C4CC4)c3)ccc2n1` [Example 470, N-cyclopropyl-N-(5-(4-(cyclopropylamino)-2-methylquinazolin-6-yl)-2-fluorobenzyl)-2-(trifluoromethyl)benzamide], in experiment [1] (10 μM compound), the inhibition at 10 µM amounted to 93%. On the same count and under the same terms, next, `CC(C)Nc1ncnc2ccc(-c3cccc(CN(Cc4ccccc4)C(=O)c4cccs4)c3)cc12` [Example 154, thiophene-2-carboxylic acid benzyl-[3-(4-isopropylamino-quinazolin-6-yl)-benzyl]-amide]: 37%. Consider `CS(=O)(=O)N(Cc1cc(-c2ccc3ncnc(NC4CC4)c3c2)ccc1Cl)C1CC1` [Example 764, N-(2-chloro-5-(4-(cyclopropylamino)quinazolin-6-yl)benzyl)-N-cyclopropyl methane sulfonamide], for which the “% Inhibition of mGluR5 Receptor (pig) [^3H]-MPEP Bond at 10 μM” value in experiment [1] (10 μM compound) stood at 87%. On to `O=C1CCC(=O)N1Cc1cccc(-c2ccc3ncnc(NCc4ccccc4)c3c2)c1` [Example 199, 1-(3-(4-(benzylamino)quinazolin-6-yl)benzyl)pyrrolidine-2,5-dione], for which the IC50 in experiment [1] came out at 1250 nM. For the molecule `O=C(c1cccc(F)c1)N(Cc1cc(-c2ccc3ncnc(NC4CC4)c3c2)ccn1)C1CC1` [Example 795, N-cyclopropyl-N-((4-(4-(cyclopropylamino)quinazolin-6-yl)pyridin-2-yl)methyl)-3-fluorobenzamide], in experiment [1] (10 μM compound), the inhibition at 10 µM came to 73%. As for `O=C1CCC(=O)N1Cc1cccc(-c2cc(Cl)c3ncnc(NC4CC4)c3c2)c1` [Example 881, 1-(3-(8-chloro-4-(cyclopropylamino)quinazolin-6-yl)benzyl)pyrrolidine-2,5-dione], the IC50 in experiment [1] stood at 20 nM. For `O=C(c1cccc(C(F)(F)F)c1)N(Cc1cc(-c2ccc3ncnc(NC4CC4)c3c2)ccc1F)C1CC1` [Example 405, N-cyclopropyl-N-(5-(4-(cyclopropylamino)quinazolin-6-yl)-2-fluorobenzyl)-3-(trifluoromethyl)benzamide], in experiment [1] (10 μM compound), the inhibition at 10 µM came out at 77%.

`O=C(c1ccccc1)N(Cc1cc(-c2ccc3ncnc(NC4CC4)c3c2)ccn1)C1CC1` [Example 813, N-cyclopropyl-N-((4-(4-(cyclopropylamino)quinazolin-6-yl)pyridin-2-yl)methyl)benzamide]: the inhibition at 10 µM in experiment [1] (10 μM compound) came to 73%.

Regarding `O=C(c1ccco1)N(Cc1cccc(-c2ccc3ncnc(NC4CC4)c3c2)c1)C1CC1` [Example 169, furan-2-carboxylic acid cyclopropyl-[3-(4-cyclopropylamino-quinazolin-6-yl)-benzyl]-amide], the inhibition at 10 µM in experiment [1] (10 μM compound) turned out to be 91%.

For `CC(=O)N(C1CC1)C(C)c1cccc(-c2ccc3ncnc(NC4CC4)c3c2)c1` (stereo not shown) [Example 235, N-cyclopropyl-N-{1-[3-(4-cyclopropylamino-quinazolin-6-yl)-phenyl]-ethyl}-acetamide], the IC50 in experiment [1] was determined as 7350 nM.
